Measured values from ChEMBL document CHEMBL1201862, “PubChem BioAssay data set” (2004).
Calls of active or inactive are those of the source.

How the values were obtained:
cells [1] = type: functional, cell-based
cells [2] = type: functional, cell-based; remark: listed apart in the source
[3] = target: FAD-linked sulfhydryl oxidase ALR (Homo sapiens, UniProt P55789); assay: inhibitors of human ALR sulfhydryl oxidase, dose response, biochemical, H2O2 detection, luminescence, cherry-pick (AID 493248)
FAD-linked sulfhydryl oxidase ALR, sequence (P55789 whole entry): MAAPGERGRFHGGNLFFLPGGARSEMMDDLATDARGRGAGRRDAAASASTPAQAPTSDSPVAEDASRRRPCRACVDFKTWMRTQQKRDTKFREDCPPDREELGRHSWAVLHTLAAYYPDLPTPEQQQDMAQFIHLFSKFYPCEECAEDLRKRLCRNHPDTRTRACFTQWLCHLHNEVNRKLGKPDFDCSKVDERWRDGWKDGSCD

Nonstructural protein 1 = Nonstructural protein 1 (Influenza A virus, UniProt Q194T2); type: functional, Influenza A virus (A/California/07/2009(H1N1))
Nonstructural protein 1, sequence (Q194T2 whole entry): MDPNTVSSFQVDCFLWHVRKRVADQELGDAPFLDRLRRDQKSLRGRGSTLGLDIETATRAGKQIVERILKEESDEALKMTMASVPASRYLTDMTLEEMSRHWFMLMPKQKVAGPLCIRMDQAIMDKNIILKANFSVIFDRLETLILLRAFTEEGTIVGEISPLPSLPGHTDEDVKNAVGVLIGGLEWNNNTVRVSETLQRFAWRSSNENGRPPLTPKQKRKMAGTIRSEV

[4] = NIH-3T3 fibroblast cytotoxicity, dose response, cytotoxicity control, cell-based, fluorescence, Alamar Blue, secondary assay (AID 2327); type: functional;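 further: NIH-3T3 mouse fibroblasts cultured with fluconazole at 8 µg/mL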
[5] = C. albicans growth with fluconazole, confirmation, fluorescence, retest (AID 2467); type: functional, cell-based
[6] = target: T1, Carboxy-terminal domain RNA polymerase II polypeptide A small phosphatase 1 (Homo sapiens, UniProt Q9GZU7); assay: inhibitors of CTDSP1, concentration-response testing, biochemical assay, absorbance-based, actives from ultra-high-throughput screening (AID 540297); type: functional
T1 sequence (Q9GZU7 whole entry): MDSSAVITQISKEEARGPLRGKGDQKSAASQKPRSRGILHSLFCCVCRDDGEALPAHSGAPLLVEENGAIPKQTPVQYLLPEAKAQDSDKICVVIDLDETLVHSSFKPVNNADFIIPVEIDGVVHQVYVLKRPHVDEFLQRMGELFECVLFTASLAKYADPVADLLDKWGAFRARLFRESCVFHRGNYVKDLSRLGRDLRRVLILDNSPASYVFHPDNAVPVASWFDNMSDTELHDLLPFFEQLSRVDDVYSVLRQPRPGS

[7] = growth suppression of PTEN-null colon cells, dose response, cell-based, HCT116 PTEN knockout (AID 1047); type: functional;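 further: HCT116 colon tumor cells with PTEN knocked out; cells exposed to compound for 60 hours before readout; potency for loss of cell viability measured by luminescence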
[8] = growth suppression of beta-catenin-knockout colon cells, dose response, cell-based, HCT116, human colon tumor (AID 1045); type: functional;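 further: HCT116 colon tumor cells with beta catenin knocked out; cells exposed to compound for 60 hours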
Cytochrome P450 1A2 = target: T2, Cytochrome P450 1A2 (Homo sapiens, UniProt P05177);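 further: PubChem cytochrome P450 panel assay, CYP1A2 panel member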
T2 sequence (P05177 whole entry): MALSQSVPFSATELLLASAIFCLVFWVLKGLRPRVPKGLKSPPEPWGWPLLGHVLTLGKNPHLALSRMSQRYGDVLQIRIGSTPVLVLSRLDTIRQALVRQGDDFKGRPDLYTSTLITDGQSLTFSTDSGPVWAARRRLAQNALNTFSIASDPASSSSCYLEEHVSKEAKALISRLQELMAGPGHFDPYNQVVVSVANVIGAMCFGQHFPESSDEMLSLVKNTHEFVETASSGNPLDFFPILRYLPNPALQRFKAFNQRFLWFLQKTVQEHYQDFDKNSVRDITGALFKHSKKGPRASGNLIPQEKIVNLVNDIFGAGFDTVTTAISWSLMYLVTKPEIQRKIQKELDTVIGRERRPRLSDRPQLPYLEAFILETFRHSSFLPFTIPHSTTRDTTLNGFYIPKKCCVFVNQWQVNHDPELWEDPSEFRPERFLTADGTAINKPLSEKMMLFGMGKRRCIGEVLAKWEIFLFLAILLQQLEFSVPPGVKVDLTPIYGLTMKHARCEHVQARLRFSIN

Cytochrome P450 3A4 = Cytochrome P450 3A4 (Homo sapiens, UniProt P08684);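 further: CYP3A4 tested as one member of a cytochrome P450 panel screen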
Cytochrome P450 3A4, sequence (P08684 whole entry): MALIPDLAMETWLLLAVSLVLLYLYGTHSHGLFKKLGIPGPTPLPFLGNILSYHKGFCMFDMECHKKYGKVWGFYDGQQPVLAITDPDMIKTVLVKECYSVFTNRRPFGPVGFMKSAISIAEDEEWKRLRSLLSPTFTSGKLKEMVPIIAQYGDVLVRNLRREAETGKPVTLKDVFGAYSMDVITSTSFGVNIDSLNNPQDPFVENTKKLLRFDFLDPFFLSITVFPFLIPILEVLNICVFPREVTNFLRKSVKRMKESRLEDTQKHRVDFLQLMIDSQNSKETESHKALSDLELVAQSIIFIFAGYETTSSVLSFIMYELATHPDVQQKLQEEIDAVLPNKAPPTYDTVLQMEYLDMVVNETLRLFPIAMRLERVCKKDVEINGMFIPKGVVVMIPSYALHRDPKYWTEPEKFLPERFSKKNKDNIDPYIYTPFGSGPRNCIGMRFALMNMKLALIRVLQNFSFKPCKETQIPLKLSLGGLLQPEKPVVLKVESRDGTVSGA

Cytochrome P450 2C9 = Cytochrome P450 2C9 (Homo sapiens, UniProt P11712)
Cytochrome P450 2C9, sequence (P11712 whole entry): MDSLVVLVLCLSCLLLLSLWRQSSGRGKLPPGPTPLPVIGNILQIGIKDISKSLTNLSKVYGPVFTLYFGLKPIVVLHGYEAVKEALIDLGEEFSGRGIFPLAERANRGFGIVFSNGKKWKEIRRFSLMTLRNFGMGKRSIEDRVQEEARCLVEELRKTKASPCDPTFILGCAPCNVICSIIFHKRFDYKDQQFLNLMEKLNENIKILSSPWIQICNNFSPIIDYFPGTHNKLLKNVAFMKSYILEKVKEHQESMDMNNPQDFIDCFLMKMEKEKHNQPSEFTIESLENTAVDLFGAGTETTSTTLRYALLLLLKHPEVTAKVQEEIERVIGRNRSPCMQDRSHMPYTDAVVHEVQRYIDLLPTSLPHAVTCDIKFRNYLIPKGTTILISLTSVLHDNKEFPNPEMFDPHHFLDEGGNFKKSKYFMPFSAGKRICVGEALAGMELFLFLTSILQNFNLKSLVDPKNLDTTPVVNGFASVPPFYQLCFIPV

Paired box protein Pax-8 = Paired box protein Pax-8 (Homo sapiens, UniProt Q06710); assay: inhibitors of PAX8-driven TPO luciferase reporter, dose response, RMG-I cells, cherry-pick (AID 687027); type: functional, cell-based;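 further: luciferase reporter driven by Pax8 target thyroperoxidase promoter measured by SteadyGlo luminescence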
Paired box protein Pax-8, sequence (Q06710 whole entry): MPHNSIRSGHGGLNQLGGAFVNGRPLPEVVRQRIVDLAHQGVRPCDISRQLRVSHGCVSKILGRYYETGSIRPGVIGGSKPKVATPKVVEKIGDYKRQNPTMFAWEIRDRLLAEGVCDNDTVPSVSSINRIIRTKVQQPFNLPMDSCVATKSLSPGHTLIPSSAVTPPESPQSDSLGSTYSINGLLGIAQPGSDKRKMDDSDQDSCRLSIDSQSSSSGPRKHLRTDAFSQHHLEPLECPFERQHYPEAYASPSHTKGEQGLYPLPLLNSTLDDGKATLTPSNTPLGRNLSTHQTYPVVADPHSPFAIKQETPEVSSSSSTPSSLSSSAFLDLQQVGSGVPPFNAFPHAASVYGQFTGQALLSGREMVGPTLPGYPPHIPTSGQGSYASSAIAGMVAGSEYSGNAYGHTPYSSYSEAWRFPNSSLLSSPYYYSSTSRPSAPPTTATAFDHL

[9] = microbe, parasite or virus in culture; type: functional; settings: Mycobacterium tuberculosis
[10] = Luminescence Cell-Based Dose Retest to Confirm Inhibitors of Cancer Stem Cells. [Related pubchem assays (depositor defined):AID2717, AID2721]; type: functional; settings: Homo sapiens
INS1 = assay: beta cell apoptosis inhibitors, cytokine rescue, dose response, luminescence, retest (AID 449756); type: functional, cell-based; settings: Rattus norvegicus;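 further: cell death triggered by IL-1 beta plus TNF-alpha plus IFN-gamma mixture; protective hits raise ATP signal compared with cytokine alone wells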
[11] = inhibitors of firefly luciferase expression or activity, dose response, H4 neuroglioma cells, luminescence (AID 1990); type: functional, cell-based
[12] = Luminescence Cell-Based Dose Response HTS to Identify Inhibitors of 5'UTR Stem-Loop Driven Prion Protein mRNA Translation in H4 Neuroglioblastoma Cells. [Related pubchem assays: 1827 (Project Summary), 1813 (Primary HTS)]; type: functional
[13] = inhibitors of SNCA 5'UTR-driven reporter translation, confirmation, H4 neuroglioma cells, luminescence (AID 1988); type: functional, cell-based
[14] = Luminescence Cell-Based Dose Response HTS to Identify Activators of Luciferase Translation or Activity in H4 […] Cells. [Related pubchem assays: 1829 (Project Summary), 1814 (Primary HTS)]; type: functional
H4 = assay: Luminescence Cell-Based Dose Response HTS to Identify Activators of 5'UTR Stem-Loop Driven Prion Protein mRNA Translation in H4 Neuroglioblastoma Cells. [Related pubchem assays: 1829 (Project Summary), 1814 (Primary HTS)]; type: functional; settings: Homo sapiens
[15] = target: T3, RNA-binding protein pos-1 (Caenorhabditis elegans, UniProt G5EF15); assay: inhibitors of POS-1/mex-3 RNA binding, dose response, biochemical, fluorescence polarization (AID 1964);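 further: purified POS-1 fused to maltose binding protein made in E. coli; potency of compounds blocking POS-1 binding to fluorescent RNA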
T3 sequence (G5EF15 whole entry): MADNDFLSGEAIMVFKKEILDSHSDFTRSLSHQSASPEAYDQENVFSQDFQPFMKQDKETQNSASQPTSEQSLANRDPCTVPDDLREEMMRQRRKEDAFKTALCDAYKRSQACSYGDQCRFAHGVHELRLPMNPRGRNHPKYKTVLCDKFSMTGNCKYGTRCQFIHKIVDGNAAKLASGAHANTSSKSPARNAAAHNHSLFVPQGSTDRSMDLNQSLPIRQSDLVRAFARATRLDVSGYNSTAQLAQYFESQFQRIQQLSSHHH

[16] = target: T4, Rac GTPase-activating protein 1 (Homo sapiens, UniProt Q9H0H5); assay: MgcRacGAP GTPase-activating activity inhibitors, confirmation, biochemical, ADP Hunter fluorescence, primary and confirmatory (AID 624330); type: functional
T4 sequence (Q9H0H5 whole entry): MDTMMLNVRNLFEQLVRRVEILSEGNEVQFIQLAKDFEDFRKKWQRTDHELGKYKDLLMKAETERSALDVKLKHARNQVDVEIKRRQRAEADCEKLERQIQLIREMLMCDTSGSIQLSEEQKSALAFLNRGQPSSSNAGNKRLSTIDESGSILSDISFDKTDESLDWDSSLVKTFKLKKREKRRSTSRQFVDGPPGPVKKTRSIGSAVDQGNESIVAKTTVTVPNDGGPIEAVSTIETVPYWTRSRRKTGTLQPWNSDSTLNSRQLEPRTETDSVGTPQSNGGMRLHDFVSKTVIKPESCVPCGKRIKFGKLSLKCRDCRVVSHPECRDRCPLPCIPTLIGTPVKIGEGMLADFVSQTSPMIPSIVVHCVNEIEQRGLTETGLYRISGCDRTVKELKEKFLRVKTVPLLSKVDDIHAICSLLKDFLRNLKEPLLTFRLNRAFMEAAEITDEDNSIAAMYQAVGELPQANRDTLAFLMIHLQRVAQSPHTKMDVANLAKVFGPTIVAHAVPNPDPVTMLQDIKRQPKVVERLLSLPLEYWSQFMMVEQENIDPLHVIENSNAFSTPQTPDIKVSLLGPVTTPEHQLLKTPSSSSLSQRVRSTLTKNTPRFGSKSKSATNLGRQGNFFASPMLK

COc1ccc(C(=O)CSc2nncn2C)cc1
EC50 (cells [1]): > 350 µM (not active) | EC50 (cells [2]): > 350 µM (not active)

COc1ccc(CSC2=NCCN2)cc1Br
AC50 [3]: 0.007 µM (active)

Oc1ccc2ccccc2c1N=Nc1ccc(F)cc1
IC50 (Nonstructural protein 1): 16.2 µM (active)

c1ccc(-c2ccccc2OCCCN2CCCCCC2)cc1
EC50 [4]: > 150 µM (inactive) | EC50 [5]: > 38 µM (not active)

N#CCC(=O)Nc1sc2c(c1C(N)=O)CCCC2
AC50 [3]: 14.4 µM (active)

O=C(CCC1N=C2c3ccccc3N=C(SCC(=O)NCc3ccco3)N2C1=O)NCc1ccco1 (centres undefined)
IC50 [6]: 5.31 µM (active)

CCn1c(C)cc(/C=C2\SC(=O)N(CC(=O)Nc3ccc(C)c(C)c3)C2=O)c1C
EC50 [7]: 210 µM (active) | EC50 [8]: 24.1 µM (active) | AC50 (Cytochrome P450 1A2): 8.91 µM (inconclusive) | AC50 (Cytochrome P450 3A4): 1 µM (inconclusive) | AC50 (Cytochrome P450 2C9): 1.58 µM (inconclusive)

CC(C)[C@H](NC(=O)c1ccco1)C(=O)OCc1cc(=O)n2c(n1)sc1ccccc12
EC50 (cells [1]): > 350 µM (not active) | EC50 (cells [2]): > 350 µM (not active)

O=C1CC(NNc2ccccc2)C(=O)N1c1cccc(Cl)c1 (centres undefined)
AC50 [3]: 0.319 µM (active)

Cc1cccc(NC(=O)CC23CC4CC(C2)CC(n2nnc(C)n2)(C4)C3)c1
AC50 (Paired box protein Pax-8): 37.1 µM (active)

COC(=O)c1ccc(/C=C/c2c(-c3ccsc3)oc3ccc(N4CCOCC4)cc23)cc1
CC50 [9]: > 40 µM (active) | AC50 [10]: 3.33 µM (active)

Cc1c(CCC(=O)N[C@@H](C)C(=O)O)c(=O)oc2c(C)c3oc4c(c3cc12)CCCC4
AC50 [3]: 3.72 µM (active)

c1ccc(CSc2nnc(-c3cccs3)n2Cc2ccco2)cc1
EC50 [4]: > 150 µM (inactive) | EC50 [5]: > 38 µM (not active)

CC(OC(=O)COc1ccc(Nc2ccccc2)cc1)C(=O)N(C)c1ccccc1 (centres undefined)
EC50 (cells [1]): > 350 µM (not active) | EC50 (cells [2]): 30.5 µM (active)

Cc1ccc2c(c1)C1NC(S)=NC(C)(O2)C1C(=O)Nc1ccc(Cl)cc1 (centres undefined)
EC50 (cells [1]): > 350 µM (not active) | EC50 (cells [2]): > 350 µM (not active)

CCc1ccc(-c2csc3[n+]2CCN3C(C)=O)cc1
AC50 [3]: 3.62 µM (active)

CCOCCCNS(=O)(=O)c1ccc(NC(=O)N2c3ccccc3Sc3ccccc32)cc1
CC50 [9]: 36.6 µM (active)

O=c1[nH]c(=O)n(Cc2ccccc2)c2nc(-c3ccc(Oc4ccc(F)cc4)c([N+](=O)[O-])c3)n(CCO)c12
CC50 [9]: 13.9 µM (active) | EC50 [7]: 7.51 µM (active) | EC50 [8]: 8.03 µM (active)

CC(C(=O)Nc1ccc(S(N)(=O)=O)cc1)N1CCc2ccccc21 (centres undefined)
AC50 [3]: 1.8 µM (active)

O=C1/C(=C\c2cccnc2)CN(Cc2ccccc2)C/C1=C\c1cccnc1
EC50 [7]: 1.29 µM (active) | EC50 [8]: 0.429 µM (active) | AC50 [10]: 2.06 µM (active) | AC50 (INS1): 4.87 µM (active)

N#C/C(=C\c1ccccc1[N+](=O)[O-])c1nc(C2CC2)cs1
IC50 (Nonstructural protein 1): 75.1 µM (active)

COc1ccc(CNS(=O)(=O)c2cc3c4c(c2)C(C)C(=O)N4CCC3)cc1 (centres undefined)
EC50 (cells [1]): > 350 µM (not active) | EC50 (cells [2]): > 350 µM (not active)

NC(=NO)c1ccc(NC(=O)c2ccc(Br)o2)cc1
AC50 [3]: 0.16 µM (active)

CN1CCN(C2Cc3ccc(F)cc3Sc3cc(F)c(Cl)cc32)CC1 (centres undefined)
EC50 [11]: > 120 µM (not active) | EC50 (cells [1]): > 350 µM (not active) | EC50 [12]: > 120 µM (not active) | EC50 [13]: > 60 µM (not active) | EC50 (cells [2]): 20.1 µM (active) | AC50 [10]: 6.08 µM (active)

O=C(COC(=O)c1ccccc1[N+](=O)[O-])c1ccc2c(c1)OCO2
EC50 [14]: > 120 µM (not active) | EC50 (H4): 36 µM (active)

CCOC(=O)c1c(NC(=O)CN2CCN(C(=O)c3ccco3)CC2)sc2c1CCCC2
EC50 [4]: > 150 µM (inactive) | EC50 [5]: > 38 µM (not active) | EC50 [7]: 35.1 µM (active) | EC50 [8]: 28.7 µM (active)

CC(C)n1cnc2c(NCc3ccccc3)cc(Cc3ccc(F)cc3)cc21
CC50 [9]: > 40 µM (active) | AC50 [10]: 1.78 µM (active)

O=C(CCc1nnc(-c2ccccc2)o1)c1ccc(Cl)cc1
EC50 (cells [1]): > 350 µM (not active)

Nc1ccc(NC(=O)c2ccco2)c(Cl)c1
AC50 [3]: 1.72 µM (active)

CN(C)C(=O)c1ccc(NC(=O)c2cc(-c3ccco3)nc3ccccc23)cc1
IC50 [6]: 7.55 µM (active)

Oc1ccc(/C=N/Nc2[nH]cnc3ncnc2-3)cc1
EC50 [15]: > 300 µM (not active) | IC50 [16]: 11.6 µM (active)

C[C@H]1CCCCO[C@@H](CN(C)C(=O)Nc2ccc(C(F)(F)F)cc2)[C@@H](C)CN([C@@H](C)CO)C(=O)c2cc(NS(=O)(=O)c3cn(C)cn3)ccc2O1
AC50 (Paired box protein Pax-8): 17.9 µM (active)

CCCC(=O)Nc1ccc2c(c1)C(=O)N(C)C[C@@H](OC)[C@H](C)CN(Cc1ccc(-c3ccccn3)cc1)[C@H](C)CO2
AC50 (Paired box protein Pax-8): 28.7 µM (active)

C[C@@H]1CN([C@H](C)CO)C(=O)c2cc(NC(=O)Nc3ccc(C(F)(F)F)cc3)ccc2O[C@@H](C)CCCCO[C@H]1CN(C)C(=O)Nc1ccc(F)cc1
AC50 (Paired box protein Pax-8): 1.41 µM (active)

CC1CC/C(=N/Nc2ccccc2)C(=O)N1 (centres undefined)
AC50 [3]: 0.623 µM (active)

Cc1ccn(CC(=O)N/N=C/c2cc([N+](=O)[O-])ccc2O)n1
IC50 (Nonstructural protein 1): 7.07 µM (active)

O=C(N/N=C/C1C(=O)NC(=S)N(c2ccccc2)C1=O)c1cc(Br)c(O)c(Br)c1 (centres undefined)
IC50 (Nonstructural protein 1): 10.5 µM (active)

Cc1nnc(S)n1/N=C/c1cccc(OCc2ccccc2)c1
CC50 [9]: > 40 µM (active)

Cc1oc(-c2ccc(Cl)cc2)cc1/C(O)=C(C#N)/C=N/c1cccc(OC(F)(F)F)c1
EC50 (cells [1]): > 350 µM (not active) | EC50 (cells [2]): > 350 µM (not active)

Cc1cc2c(s1)Nc1ccccc1N=C2N1CCN(C)CC1 [OLANZAPINE]
AC50 [3]: 0.369 µM (active)
